Data on five compounds can be found in patent US8476319B2, “Methods of treating ear infections” (3M Innovative Properties Company, priority 2005, dated 2013).

Data set [1] can be described thus: Transport through the tympanic membrane, GC of saline recovered from middle ear. Type of data set: in vivo, chinchilla. The settings on record: for formulation component detected by GC in saline recovered from the middle ear: Example 2 formulation in outer ear next to tympanic membrane, samples at 15, 30, 60 min. The method, then:
Example 2 formulation was evaluated for transportability across the ear drum (tympanic membrane) and into the middle ear with an animal model test using chinchillas (400 g to 500 g). A cotton plug saturated with Example 2 formulation was placed against the outer ear membrane of a chinchilla. An opening was made into the middle ear through the bulla and 1 mL saline was placed in the middle ear. At 15, 30, and 60 min. the saline was withdrawn and replaced with fresh saline. Tympanometry was completed before and after the test compositions were applied to ensure the tympanic membrane was intact (without perforations). The saline samples were kept at 4° C. until assayed.
GC Analysis: Six samples of saline recovered from the middle ear of a chinchilla were analyzed by GC. They were recovered from both the left and right ears of the test animal at 15, 30, and 60 min after an antibacterial formulation was placed in the outer ear next to the tympanic membrane. The GC analysis detected the formulation components of GML, FINSOLV NT, and benzoic acid.
Standard preparation: A single external standard of GML (Medchem—97%) at 1 mg/mL was prepared in CHCl3. Standards of methyl benzoate and FINSOLV NT were also available. Saline (0.9% NaCl) was prepared in the lab.
Sample Extraction: The six samples were contained in 1.5 mL clear plastic micorcentrifuge tubes. The 30- and 60-min samples were clear while the 15-min samples contained a water insoluble residue (there appeared to be so much antimicrobial composition in the sample collected a separate phase was noted by the analyst). The liquid was vortexed and transferred to separate 10 mL graduated clinical centrifuge tubes and the volume recorded. The sample tubes were rinsed once with approximately 0.5 mL saline vortexed and transferred to the centrifuge tube. The microtubes were rinsed a second time with approximately 0.75 mL chloroform which was also transferred to the clinical centrifuge tube. The chloroform dissolved the residue in the 15 min samples. The liquid level in the centrifuge tubes was brought to 1.7 mL by the addition of saline solution. A sample (4.5 mL) of CHCl3 was then added to the centrifuge tubes using a 5-mL graduated glass pipette. The tubes were then sealed with TEFLON screw cap tops and vortexed for 2 min. They were then centrifuged in an IEC clinical centrifuge until 2 clear phases formed (approximately 5 min). Using Pasture pipettes, the lower (organic) phases were quantitatively transferred to a set of preweighed 7-mlL vials. The extracts were treated with diazomethane (DAM) which formed the methyl esters of acids present, in this case methyl benzoate from benzoic acid present. Extracts were placed on a warm heating block and taken to dryness under a stream of nitrogen. Once constant weight was obtained, the samples were re-weighed and the net weight was recorded. Using a graduated pipette enough CHCl3 was added back to the 15 min extracts to achieve a concentration of 1 mg/mL in GML. The 30 and 60 min samples had much less weight so an arbitrary ½ mL of CHCl3 was added. An aliquot of each sample was then transferred to an autosampler vial and analyzed by GC using the conditions below. Gas Chromatography: • Instrument—HP 5890 • Column—15 meter STABILWAX-DA, 0.25 μm film 0.25 mm ID • Carrier—He, 2.07×10^5 N/m^2(30 psi) constant pressure • Injection—2 μL split 1:60, injector temp 250° C. • Liner—Restek SILTEK deactivated liner with SILTEK • deactivated glass wool (catalog number 22406-213.5) • Program—110° C. initial, 7° C./min to 250°, hold 10 minutes • Detector—FID at 250° C.
The total recovered GML was determined by direct GC analysis of the fractions. […] As indicated above a standard of methyl benzoate was substituted for benzoic acid. The components have been identified and the FINSOLV TN contributes most of the peak area. […]

For data set [2], the system named is Organ of Corti hair cells. The data set can be described thus: Ototoxicity testing in chinchillas (trans bullar injection, Organ of Corti surface preparation). The settings on record: 0.1 cc into middle ear, two injections, 17 days. The text has this: Initial screening of selected components for ototoxic effect was preformed using chinchillas. The compounds or compounds plus vehicle were placed in proximity to the round window membrane of the chinchilla and the tissues evaluated for ototoxic insult.
General Test Procedure: Chinchillas were mildly anesthetized using 0.1 cc IM ketamine. The skin overlying the ventral aspect of the left and right bulla were shaved and surgically prepped. An amount (0.1 cubic centimeter (cc)) of the test material was placed in the middle ear near the round window niche using a 1 cc syringe with a 23 guage needle by trans bullar injection. Three days later the procedure was repeated using the same test material in each ear. Fourteen days after the second injection (total survival time=17 days) the animals were sacrificed. The bullae were removed, the cochlea isolated and perfused with fixative through the round window membrane. After standard preparation (fixation and decalcification) the samples were dissected and the Organ of Corti isolated and evaluated for ototoxic insult. The surface preparation analysis of the Organ of Corti is a universally accepted method of evaluating hair cell loss due to ototoxic insult. The chinchilla is the standard test animal used and a 14 day survival time is adequate to screen for gross hair cell disruption due to ototoxic effect. The materials were tested in both a right and left ear but using two different animals.
This served as a positive control.

Where [3] appears, read: recovered from middle ear saline 15 minutes after Example 2 formulation placed against tympanic membrane.
Setting [4] is: recovered from middle ear saline 30 minutes after Example 2 formulation placed against tympanic membrane.
Where [5] appears, read: total of 15, 30 and 60 minute samples, Example 2 formulation.

In the case of `O=C(O)c1ccccc1` [benzoic acid, Benzoic acid], the “formulation component detected by GC in saline recovered from the middle ear” value in data set [1] is listed as “detected”.

With `CCCCCCCCCCCC(=O)OCC(O)CO` (stereo not drawn) [GML, Glycerol monolaurate], the “Ototoxicity Result” value was “No toxicity (no toxicity (rating 1))” in data set [2] (0.5% in water), “No toxicity (no toxicity (rating 1))” in data set [2] (1% / 1.0% in water) and “Toxic (toxic (rating 2-4))” in data set [2] (1% in IPM). Further, the “formulation component detected by GC in saline recovered from the middle ear” value in data set [1] is listed as “detected”. The figures for the “Left ear GML” value in data set [1] (setting [3]) and in data set [1] (setting [4]) were 10.3 mg and 0.03 mg, respectively. The “Right ear GML” value in data set [1] (setting [3]) turned out to be 2.35 mg; in data set [1] (setting [4]), 0.98 mg. Besides, the “Left ear GML (mg), Total” value in data set [1] (setting [5]) is on record as 10.33 mg. Further, the “Right ear GML (mg), Total” value in data set [1] (setting [5]) stood at 3.33 mg.

As for “Propylene glycol monocaprylate [PG monocaprylate]”, the “Ototoxicity Result” value in data set [2] (0.25% in water) and in data set [2] (1% / 1.0% in water) was “No toxicity (no toxicity (rating 1))” throughout.

On to `CCCCC(CC)COC(=O)CC(C(=O)OCC(CC)CCCC)S(=O)(=O)[O-].[Na+]` (stereo not drawn) [GEMTEX (DOSS), Dioctylsulfosuccinate, sodium salt], for which, in data set [2] (1% / 1.0% in water), the “Ototoxicity Result” value is reported as “Toxic (toxic (rating 2-4))”.

As for `CCCCCCCCCCCCCC(=O)OC(C)C` [IPM, Isopropyl myristate], the “Ototoxicity Result” value in data set [2] (100%) is recorded as “Toxic (toxic (rating 2-4))”.
